Calls of active or inactive are those of the source. The rule behind the calls is not given here.
Key:
Assay type in all cases: functional, cell-based
A549 [1] = assay: Growth inhibition of human A549 cells incubated for 6 days in presence of 400 U/ml IFNalpha by MTS assay; conditions: A549, 144 h
OVCAR-3 [2] = assay: Growth inhibition of human OVCAR3 cells incubated for 7 days in absence of 400 U/ml IFNalpha by MTS assay; conditions: OVCAR-3, 168 h
OVCAR-3 [3] = assay: Growth inhibition of human OVCAR3 cells incubated for 7 days in presence of 400 U/ml IFNalpha by MTS assay; conditions: OVCAR-3, 168 h
A549 [4] = assay: Growth inhibition of human A549 cells incubated for 6 days in absence of 400 U/ml IFNalpha by MTS assay; conditions: A549, 144 h
A549 [5] = assay: Growth inhibition of human A549 cells at 13 uM incubated for 4 days in presence of 200 U/ml IFNalpha and in absence of 30 nM 14-3-3zeta siRNA by MTS assay
A549 [6] = assay: Induction of apoptosis in human A549 cells assessed as increase in PARP cleavage at 13 uM incubated for 4 days in presence of 200 U/ml IFNalpha by Western blot analysis
A549 [7] = assay: Increase in DR5 protein expression in human A549 cells at 13 uM incubated for 4 days in presence of 200 U/ml IFNalpha by Western blot analysis
A549 [8] = assay: Growth inhibition of human A549 cells at 13 uM incubated for 4 days in presence of 200 U/ml IFNalpha and 30 nM 14-3-3zeta siRNA by MTS assay
A549 [9] = assay: Increase in DR5 protein expression in human A549 cells at 13 uM incubated for 4 days in absence of 200 U/ml IFNalpha by Western blot analysis
A549 [10] = assay: Induction of apoptosis in human A549 cells assessed as increase in PARP cleavage at 13 uM incubated for 4 days in absence of 200 U/ml IFNalpha by Western blot analysis
A549 [11] = assay: Increase in DR5 protein expression in human A549 cells at 14 uM incubated for 4 days in presence of 200 U/ml IFNalpha by Western blot analysis
A549 [12] = assay: Growth inhibition of human A549 cells at 14 uM incubated for 4 days in presence of 200 U/ml IFNalpha and in absence of 30 nM 14-3-3zeta siRNA by MTS assay
A549 [13] = assay: Induction of apoptosis in human A549 cells assessed as increase in PARP cleavage at 14 uM incubated for 4 days in presence of 200 U/ml IFNalpha by Western blot analysis
A549 [14] = assay: Growth inhibition of human A549 cells at 14 uM incubated for 4 days in presence of 200 U/ml IFNalpha and 30 nM 14-3-3zeta siRNA by MTS assay
A549 [15] = assay: Increase in DR5 protein expression in human A549 cells at 14 uM incubated for 4 days in absence of 200 U/ml IFNalpha by Western blot analysis
A549 [16] = assay: Induction of apoptosis in human A549 cells assessed as increase in PARP cleavage at 14 uM incubated for 4 days in absence of 200 U/ml IFNalpha by Western blot analysis

| SMILES | EC50 (A549 [1]) [µM] | EC50 (OVCAR-3 [2]) [µM] | EC50 (OVCAR-3 [3]) [µM] | EC50 (A549 [4]) [µM] | growth inhibition (GI) (A549 [5]) | Activity (A549 [6]) | Activity (A549 [7]) | growth inhibition (GI) (A549 [8]) | Activity (A549 [9]) | Activity (A549 [10]) | Activity (A549 [11]) | growth inhibition (GI) (A549 [12]) | Activity (A549 [13]) | growth inhibition (GI) (A549 [14]) | Activity (A549 [15]) | Activity (A549 [16]) |
| --- | --- | --- | --- | --- | --- | --- | --- | --- | --- | --- | --- | --- | --- | --- | --- | --- |
| COC[C@@]1(OC)CC[C@@H]2/C1=C\[C@@]1(C)CCC(C(C)C)=C1[C@@H](O[C@H]1O[C@@H]3COC(C)(C)O[C@H]3[C@H](O)[C@H]1O)[C@H](O)[C@@H]2C | > 40 | 140 | > 40 | 170 | – | – | – | – | – | – | – | – | – | – | – | – |
| COC[C@H]1O[C@H](O[C@@H]2C3=C(C(C)C)CC[C@]3(C)/C=C3\[C@@H](CC[C@]3(O)COC)[C@@H](C)[C@H]2O)[C@H](O)[C@H]2O[C@H]3O[C@]21O[C@@]3(C)[C@@H]1CO1 | 17 | 40 | 4.6 | 125 | Active | Active | Active | inactive | Active | inactive | – | – | – | – | – | – |
| COC[C@@]1(O)CC[C@@H]2/C1=C\[C@@]1(C)CCC(C(C)C)=C1[C@@H](O[C@H]1O[C@@H]3COC(C)(C)O[C@H]3[C@H](O)[C@H]1O)[C@H](O)[C@@H]2C | 11 | > 200 | 3.3 | > 200 | – | – | – | – | – | – | Active | Active | Active | inactive | Active | – |
| COC[C@H]1CC[C@@H]2/C1=C\[C@@]1(C)CCC(C(C)C)=C1[C@@H](O[C@H]1O[C@@H]3COC(C)(C)O[C@H]3[C@H](O)[C@H]1O)[C@H](O)[C@@H]2C | 27 | 29 | 18 | 33 | – | – | – | – | – | – | – | – | – | – | – | inactive |

From ChEMBL document CHEMBL4184246 (Bioorg Med Chem Lett, 2018)
